The source of these data is PMC9782626, “Copper(II) Complexes of 5–Fluoro–Salicylaldehyde: Synthesis, Characterization, Antioxidant Properties, Interaction with DNA and Serum Albumins” (Molecules, 2022).

Assay [1] deals with T1, bovine serum albumin (BSA) (Bos taurus, UniProt P02769).
T1 construct: purchased Sigma–Aldrich Co
The assay is described as follows: Albumin binding by tryptophan fluorescence quenching (BSA). To be noted: for ΔΙ/Ιο, quenching of the BSA fluorescence: BSA 3 μM, λex 295 nm; for % relative BSA fluorescence emission intensity I/Io remaining (% of initial): final value, pH 7.0; for BSA-binding constant K: Scatchard equation; for BSA-quenching constant kq: from Stern–Volmer plots, τo 10^-8 s. The text has this:
Serum albumins are among the important proteins of the circulatory system. Their main role is to carry drugs and other bioactive small molecules through the bloodstream. BSA and HSA are structurally homologous albumins, having two and one tryptophan residues, respectively. The tryptophan residues of both albumins are responsible for the intense fluorescence emission band with λem,max = 342 nm for BSA and 350 nm for HSA, respectively, when their solutions are excited at 295 nm. […] The inner-filter effect was calculated with Equation (S4) and it was found too low to affect the measurements.
When the compounds were added to a solution of the albumins (3 μM), a significant quenching of the BSA (λem = 342 nm) and HSA (λem = 350 nm) fluorescence emission bands was observed (Figure 7) which was more pronounced in the case of BSA (Table 7 and Figure 8). […] The observed quenching may be ascribed to changes in the tryptophan environment of SA resulting from possible denaturation of their secondary structure, induced by the binding of the complexes to the albumins. […]
Io =1+ k τ [Q] =1+ K [Q] […]
S3Albumin -binding studies
In order to investigate if the compounds can bind to carrier proteins like serum albumins, we carried out albumin binding study by tryptophan fluorescence quenching experiments using bo vine serum albumin (BSA, 3 μM) in buffer (containing 15 mM trisodium citrate and 150 mM NaCl at pH 7.0). The quenching of the emission intensity of tryptophan residues of BSA at 343 nm was monitored using the co mpounds as que ncher s with increasing concentration [S4]. The fluo rescence emission spectra of the compounds were also recorded with λex = 295 nm. No fluorescence emission band was recorded and thus it was not related to the compounds . The influence of the inner-filter effect [S6] on the measurements wa s evaluated by equation S4.
Where Icorr = corrected intensity, Imeas = the measured intensity, c = the concentration of the quencher, d = the cuvette (1 cm), ε (λexc ) and ε(λe m) = the ε of the quencher at the excitation and the emission wavelength, respectively, as calculated from the UV-vis spectra of the […]
The Stern-Volmer and Scatchard graphs are used to study the interaction of the compounds with serum albumins. According to Stern-Volmer quenching equation (eq.
S2), where Io = the initial tryptophan fluorescence intensity of SA, I = the tryptophan fluorescence intensity of SA after the addition of the quencher, kq = the quenching […]
constant, KSV = the Stern-Volmer constant, τo = the average lifetime of SA without the quencher, and, tak ing as fluorescence lifet ime (τo) of tryptophan in SA at around 10-8 s [S 4] , KSV (in M -1) can be obtained by the slope of the diagram Io/I versus [compound] (Stern-Volmer plots), and subsequently the quenching (kq, in M -1s-1) may be calculated from eq.
From the Scatchard equation (eq. S5): […]
where n is the number of binding sites per albumin and K is the SA-binding constant (K, in M -1) is calculated from the slope in plots (ΔI/Io)/[complex] versus ΔI/Io and n is given by the ratio of y intercept to the slope [S7].
S1 Kontogiorgis, C.; Hadjipavlou–Lit ina, D. Biological Evaluat ion of Several Coumarin Derivatives Designed as Possible Anti–inflammatory/Antioxidant Agents. J. Enz. Inhib.
S2 Ruch, R.J.; Cheng, C.; Klaunig, J.E. Prevention of cytotoxicity and inhibition of intercellular communication by antioxidant catechins isolated from Chinese green tea.
S3 Wolfe, A.; Shimer, G.; Meehan, T. Polycyclic Aromatic Hydrocarbons Physically Intercalate into Duplex Regions of Denatured DNA. Biochemistry 1987, 26, 6392–6396.
S4 Lakowicz, J.R. Principles of Fluorescence Spectroscopy , 3rd ed.; Plenum Press: New […]
S5 Heller, D.P.; Greenstock, C.L. Fluorescence lifetime analysis of DNA intercalated ethid ium bromide and quench ing by free dye. Biophys. Chem.1994,50, 305–312.
S6 Stella, L.; Capodilupo, A.L.; Bietti, M. A reassessment of the association between […]
azulene and [60]fullerene. […]

Assay [2] can be described thus: DPPH radical scavenging assay. To be noted: compound 0.1 mM. It is filed as biochemical. From the text: For the above reasons, the antioxidant ability of 5–F–saloH and Cu(II) complexes 1–5 has been evaluated via their scavenging activity towards DPPH and ABTS radicals, as well as the ability to reduce H2O2, and in comparison with that of well-known antioxidant agents such as nordihydroguaiaretic acid (NDGA), butylated hydroxytoluene (ΒHΤ), 6–hydroxy–2,5,7,8–tetramethylchromane–2–carboxylic acid (trolox) and L–ascorbic acid (these are the most commonly used standard reference antioxidant agents). The DPPH-radical assay was developed in the 1950s and this method has been used to assess the antioxidant capacity of several metal complexes. The DPPH–scavenging ability of compounds has often been related to their ability to prevent ageing, cancer and inflammation. The ability of a compound to scavenge the cationic ABTS radicals (ABTS^+●) has been considered a measure of its total antioxidant activity. Further, hydrogen peroxide has the ability to penetrate biological membranes and, although it is not very reactive itself, it can sometimes be toxic since it may give rise to hydroxyl radicals in cells. For this reason, the removal of H2O2 is very important for the protection of living systems. When a compound is incubated with H2O2 using a peroxidase assay system, the loss of H2O2 can be measured.
S1 Antioxidant activity assay
The antioxidant activity of the compounds was evaluated via their ability to scavenge in vitro free radicals such as DPPH and ABTS and to reduce H 2O2. All the experiments were carried out at least in triplicate and the standard deviation of absorbance was less than 10% of the mean.
S1.1 Determination of the reducing activity of the radical DPPH
To an ethanolic solution of DPPH (0.1 mM) an equal volume solution of the compounds (0.1 mM) in ethanol was added. Absolute ethanol was also used as control solution. The absorbance at 517 nm was recorded at room temperature after 30 and 60 min, in order to examine the possible existence of a potential time-dependence of the DPPH radical scavenging act iv ity [S 1]. The DPPH -scavenging activity of the compounds was expressed as the percentage reduction of the absorbance values of the initial DPPH solution ( DPPH%). N DGA and BHT were used as reference comp ounds. […]
On the technique in general: DPPH is a stable violet radical that fades when it is reduced.

Each structure is given as a SMILES string.

T1 sequence (P02769 25-607): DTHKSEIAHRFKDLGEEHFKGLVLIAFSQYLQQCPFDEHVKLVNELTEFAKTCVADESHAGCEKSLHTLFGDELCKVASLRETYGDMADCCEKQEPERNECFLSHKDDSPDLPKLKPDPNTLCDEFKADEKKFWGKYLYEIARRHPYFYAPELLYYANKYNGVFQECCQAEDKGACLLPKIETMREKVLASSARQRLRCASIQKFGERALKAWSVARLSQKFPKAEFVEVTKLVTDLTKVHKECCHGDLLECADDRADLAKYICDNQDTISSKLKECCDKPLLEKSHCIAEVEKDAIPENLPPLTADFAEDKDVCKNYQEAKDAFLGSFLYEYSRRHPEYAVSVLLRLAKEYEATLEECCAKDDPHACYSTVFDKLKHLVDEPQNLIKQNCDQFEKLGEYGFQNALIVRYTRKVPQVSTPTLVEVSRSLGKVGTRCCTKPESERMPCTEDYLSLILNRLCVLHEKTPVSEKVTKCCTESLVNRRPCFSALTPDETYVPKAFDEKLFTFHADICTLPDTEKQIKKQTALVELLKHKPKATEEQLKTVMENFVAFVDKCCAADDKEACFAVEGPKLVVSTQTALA

As for `O=Cc1cc(F)ccc1[O-].O=Cc1cc(F)ccc1[O-].[Cu+2]` [Complex 1, [Cu(5–F–salo)2]], in assay [1], the “ΔΙ/Ιο, quenching of the BSA fluorescence” value is 62.5%; the “% relative BSA fluorescence emission intensity I/Io remaining (% of initial)” value is 37.5%; the “BSA-binding constant K” value is given as 4.05 (±0.02) × 10^4 M^−1; the BSA-quenching constant kq is 9.38 (±0.28) × 10^12 M^−1 s^−1. Besides, in assay [2], the “DPPH% (30 min), % DPPH–scavenging ability” value (“DPPH% (30 min)” below) is recorded as 9.05 ± 0.54% and the “DPPH% (60 min), % DPPH–scavenging ability” value (“DPPH% (60 min)” below) is on record as 10.79 ± 0.20%.

Regarding `O=Cc1cc(F)ccc1[O-].[Cl-].[Cu+2].c1ccc(Nc2ccccn2)nc1` [Complex 2, [Cu(5–F–salo)(bipyam)Cl]], in assay [1], the “ΔΙ/Ιο, quenching of the BSA fluorescence” value came out at 54.0%; the “% relative BSA fluorescence emission intensity I/Io remaining (% of initial)” value turned out to be 46.0%; the “BSA-binding constant K” value was 3.15 (±0.18) × 10^4 M^−1; the BSA-quenching constant kq is on record as 6.49 (±0.14) × 10^12 M^−1 s^−1. Also, in assay [2], the “DPPH% (30 min)” value amounted to 7.54 ± 0.20% and the “DPPH% (60 min)” value was determined as 7.42 ± 0.50%.

In the case of `CO.Cc1ccc2ccc3ccc(C)nc3c2n1.O=Cc1cc(F)ccc1[O-].[Cl-].[Cu+2]` [Complex 3, [Cu(5–F–salo)(neoc)Cl].CH3OH], in assay [1], the “ΔΙ/Ιο, quenching of the BSA fluorescence” value is listed as 84.3%; the “% relative BSA fluorescence emission intensity I/Io remaining (% of initial)” value worked out at 15.7%; the “BSA-binding constant K” value was 2.51 (±0.10) × 10^5 M^−1; the BSA-quenching constant kq is 2.75 (±0.10) × 10^13 M^−1 s^−1. In addition, the “DPPH% (30 min)” value in assay [2] was determined as 7.42 ± 0.54%.

Consider `O=Cc1cc(F)ccc1[O-].O=[N+]([O-])[O-].[Cu+2].c1cnc2c(c1)ccc1cccnc12` [Complex 4, [Cu(5–F–salo)(phen)(NO3)]], for which, in assay [1], the “ΔΙ/Ιο, quenching of the BSA fluorescence” value is 75.3%; the “% relative BSA fluorescence emission intensity I/Io remaining (% of initial)” value came out at 24.7%; the “BSA-binding constant K” value is listed as 2.35 (±0.10) × 10^5 M^−1; the BSA-quenching constant kq is reported as 1.62 (±0.06) × 10^13 M^−1 s^−1. Moreover, in assay [2], the “DPPH% (30 min)” value is recorded as 6.15 ± 0.33% and the “DPPH% (60 min)” value is reported as 4.64 ± 0.10%.

Consider `O=Cc1cc(F)ccc1[O-].O=[N+]([O-])[O-].[Cu+2].c1ccc(-c2ccccn2)nc1` [Complex 5, [Cu(5–F–salo)(bipy)(NO3)]], for which, in assay [1], the “ΔΙ/Ιο, quenching of the BSA fluorescence” value is 68.3%; the “BSA-binding constant K” value is 3.23 (±0.12) × 10^5 M^−1; the BSA-quenching constant kq was 1.87 (±0.09) × 10^13 M^−1 s^−1. Moreover, in assay [2], the “DPPH% (30 min)” value is recorded as 7.19 ± 0.26% and the “DPPH% (60 min)” value is reported as 4.06 ± 0.20%.
